Laboratory results taken from patent publication US11725005B2, “Compositions and methods for inhibiting kinases” (Inhibikase Therapeutics, Inc., priority 2015, dated 2023).

Experiments:
Cos 7 cells = experiment: Cell cytotoxicity CC50 and Therapeutic Index (CC50:EC50); details: drug titration between 2 nM and 20 μM

Structure (SMILES) | Cell cytotoxicity: no toxicity up to (Cos 7 cells) | Percent inhibition PDGFRa (PDGFRa)
Cc1ccc(NC(=O)c2ccc(CN3CCN(C)CC3)cc2)cc1Nc1nccc(-c2cncc(-c3oncc3C)c2)n1 [Compound 809] | > 20 µM | 
Cc1ccnc(-c2cncc(-c3ccnc(Nc4cc(NC(=O)c5ccc(CN6CCN(C)CC6)cc5)ccc4C)n3)c2)c1 [Compound 830] | > 20 µM | 100
Cc1ccc(NC(=O)c2ccc(CN3CCN(C)CC3)cc2)cc1Nc1nccc(-c2cncc(-c3ccn(C)n3)c2)n1 [Compound 832] | > 20 µM | 100
Cc1cc(-c2cncc(-c3ccnc(Nc4cc(NC(=O)c5ccc(CN6CCN(C)CC6)cc5)ccc4C)n3)c2)sn1 [Compound 8190] | > 20 µM | 100
Cc1ccc(NC(=O)c2ccc(CN3CCN(C)CC3)cc2)cc1Nc1nccc(-c2cncc(-c3nncs3)c2)n1 [Compound 8250] | > 20 µM | 100
Cc1ccc(NC(=O)c2ccc(CN3CCN(C)CC3)cc2)cc1Nc1nccc(-c2cncc(-c3nccs3)c2)n1 [Compound 8270] | > 20 µM | 
Cc1cnc(-c2cncc(-c3ccnc(Nc4cc(NC(=O)c5ccc(CN6CCN(C)CC6)cc5)ccc4C)n3)c2)s1 [Compound 8280] | > 20 µM | 100
Cc1csc(-c2cncc(-c3ccnc(Nc4cc(NC(=O)c5ccc(CN6CCN(C)CC6)cc5)ccc4C)n3)c2)n1 [Compound 8290] |  | 100
